Source: PMC7161708 (Acta Pharmaceutica Sinica. B, 2019)
Several values for one entry are separate records, joined by “and”; a condition that tells them apart may be missing. Equal entries are not always repeated. Where two headings read alike, the source gives them in different places.

Tests used:
[1] = tested on: phosphorylation of p70S6K; assay: Inhibition of p70S6K phosphorylation, α-screen assay in SH-SY5Y cell; format: cell-based; settings: mean ± SD (n ≥ 3)
BV2 cells = assay: Cell viability assay, BV2 cells; format: cell-based; settings: 24 h; for Cytotoxicity on BV2 cells: 2, 5, 10, 20, 40 μmol/L; for Cell viability of BV2 cells at high concentration: 80, 160 μmol/L
SH-SY5Y cells = assay: Cell viability assay; format: cell-based; settings: 24 h
[2] = from PAMPA–BBB Pe
in vitro = settings: PAMPA
[3] = tested on: phosphorylation of AKT, mTOR, p70S6K and ULK1; assay: Western blot of AKT/mTOR/ULK1 signaling pathway in BV2 cells; format: cell-based; settings: 20, 10, 5 μmol/L, 24 h
LC3 II, Beclin 1 and p62 = assay: Western blot of autophagy marker proteins in BV2 cells; format: cell-based; settings: 24 h
autophagy in BV2 cells = assay: Autophagic flux assay; format: cell-based; settings: 20 μmol/L, 24 h, compared with the control group
Aβ1−40 and Aβ1−42 = assay: Aβ clearance ELISA assay in BV2 cell; format: cell-based; settings: 5, 10 and 20 μmol/L, 24 h, then 2 μg/mL soluble Aβ for 3 h
[4] = tested on: phosphorylation of tau protein; assay: Tau phosphorylation Western blot in SH-SY5Y cell; format: cell-based; settings: 5, 10 and 20 μmol/L, 24 h
[5] = tested on: APP/PS1 transgenic AD model mice; assay: Morris Water Maze assay in APP/PS1 transgenic mice; format: in vivo; settings: 100 days, compared with TV group
[6] = tested on: APP/PS1 transgenic AD model mice; assay: Nesting test in APP/PS1 transgenic mice; format: in vivo; settings: 30 mg/kg orally, 100 days, compared with TV group
Aβ40/42 = Aβ40/42 level in brain of APP/PS1 transgenic mice, ELISA; format: in vivo; settings: oral, 100 days, compared with TV group
[7] = tested on: p70S6K and tau phosphorylation; format: in vivo; settings: APP/PS1 transgenic mice
hERG potassium channels = hERG potassium channels (Homo sapiens, UniProt Q12809); assay: hERG inhibition patch clamp assay
Sequence of hERG potassium channels (Q12809 whole entry): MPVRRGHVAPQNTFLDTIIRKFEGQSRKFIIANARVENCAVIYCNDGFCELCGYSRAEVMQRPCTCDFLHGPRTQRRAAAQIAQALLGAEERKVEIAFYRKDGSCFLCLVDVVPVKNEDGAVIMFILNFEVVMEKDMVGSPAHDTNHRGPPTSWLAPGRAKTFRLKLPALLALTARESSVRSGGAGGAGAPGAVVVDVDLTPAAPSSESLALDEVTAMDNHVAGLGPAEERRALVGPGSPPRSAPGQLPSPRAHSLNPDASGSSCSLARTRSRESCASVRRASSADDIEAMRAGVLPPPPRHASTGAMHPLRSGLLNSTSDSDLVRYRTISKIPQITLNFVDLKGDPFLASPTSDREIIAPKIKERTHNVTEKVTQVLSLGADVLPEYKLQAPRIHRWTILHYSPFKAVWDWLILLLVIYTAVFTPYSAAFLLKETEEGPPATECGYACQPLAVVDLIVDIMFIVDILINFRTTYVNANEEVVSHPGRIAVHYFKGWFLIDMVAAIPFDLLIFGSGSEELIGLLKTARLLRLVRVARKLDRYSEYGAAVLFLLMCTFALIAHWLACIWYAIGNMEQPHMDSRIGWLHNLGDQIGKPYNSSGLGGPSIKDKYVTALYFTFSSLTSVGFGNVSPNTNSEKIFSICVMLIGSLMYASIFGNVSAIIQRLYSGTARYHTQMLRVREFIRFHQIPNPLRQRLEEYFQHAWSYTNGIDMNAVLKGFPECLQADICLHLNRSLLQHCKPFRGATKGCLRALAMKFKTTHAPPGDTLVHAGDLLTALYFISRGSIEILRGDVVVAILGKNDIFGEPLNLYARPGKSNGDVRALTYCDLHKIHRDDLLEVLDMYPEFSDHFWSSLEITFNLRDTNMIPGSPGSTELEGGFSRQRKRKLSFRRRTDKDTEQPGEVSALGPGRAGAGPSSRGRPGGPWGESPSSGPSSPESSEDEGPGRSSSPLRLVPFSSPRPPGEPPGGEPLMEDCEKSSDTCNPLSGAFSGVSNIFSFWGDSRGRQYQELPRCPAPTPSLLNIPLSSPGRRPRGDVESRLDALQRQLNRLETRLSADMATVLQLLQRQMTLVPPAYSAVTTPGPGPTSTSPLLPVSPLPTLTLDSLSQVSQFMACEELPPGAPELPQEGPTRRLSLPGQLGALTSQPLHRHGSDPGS

Row | SMILES | Inhibition ratio of p70S6K phosphorylation at 20 μmol/L (%) [1] | Prediction of BBB penetration [2] | Papp at 10 h, 100 μg/mL (in vitro) [×10⁻⁶ cm/s] | further results
1 | CC(=O)Oc1ccccc1C(=O)Nc1ncc(N2CCOCC2)s1 [Compound 12, 2-Acetyloxy-N-(5-morpholinothiazol-2-yl)benzamide] | 85.20% and 85.20±1.76% | CNS+ (Compounds with permeabilities Pe > 3.08 × 10^−6 cm/s could cross the BBB by passive diffusion (CNS+)) | 5.76 ± 0.57 | Concentration at which viability of BV2 cells began to decrease (BV2 cells): 20 µM; Concentration at which viability of SH-SY5Y cells decreased (SH-SY5Y cells): 5 µM
2 | CC(=O)Oc1cccc(C(=O)Nc2ncc(N3CCOCC3)s2)c1 [Compound 22, 3-Acetyloxy-N-(5-morpholinothiazol-2-yl)benzamide] | 88.95% and 88.95±0.78% | CNS+ (Compounds with permeabilities Pe > 3.08 × 10^−6 cm/s could cross the BBB by passive diffusion (CNS+)) | 6.02 ± 0.27 | Cytotoxicity on BV2 cells (BV2 cells): no cytotoxicity; Cell viability of BV2 cells at high concentration (BV2 cells): decreased; Cytotoxicity on SH-SY5Y cells (SH-SY5Y cells): low cytotoxicity; Phosphorylation of AKT, mTOR, p70S6K (Western blot) [3]: dose-dependently suppressed the phosphorylation of AKT, mTOR, p70S6K; ULK1 phosphorylation at Ser 757 (Western blot) [3]: decreased ULK1 phosphorylation at Ser 757; Protein levels of Beclin 1, LC3 II and p62 (Western blot) (LC3 II, Beclin 1 and p62): upregulate the protein levels of Beclin 1 and LC3 II, and decrease the p62 protein level; Numbers of yellow and red mTagRFP-mWasabi-LC3 puncta (autophagy in BV2 cells): increased the numbers of both yellow and red puncta; Aβ1−40 and Aβ1−42 content in the cell (ELISA) (Aβ1−40 and Aβ1−42): dose-dependently decreased both Aβ1−40 and Aβ1−42 content; Tau phosphorylation at Ser199, 396 and Tyr231 (Western blot) [4]: dose-dependently inhibited tau phosphorylation; Escape latencies in MWM assay ([5]; 10 mg/kg orally): significantly reduced the escape latencies; Crossing times in MWM probe trial ([5]; 30 mg/kg orally): significantly increased the crossing times; Escape latencies in MWM assay ([5]; 30 mg/kg orally): significantly reduced the escape latencies; Nesting test [6]: obvious improvement in nesting test; Aβ40/42 level in cerebral cortex and hippocampus (ELISA) (Aβ40/42): significantly reduced Aβ40/42 level; p70S6K phosphorylation level in the cortex (Western blot) ([7]; 10 mg/kg): significantly reduce the p70S6K phosphorylation level; p70S6K phosphorylation level in the cortex (Western blot) ([7]; 30 mg/kg): significantly reduce the p70S6K phosphorylation level; IC50 (hERG potassium channels): > 40 µM
3 | O=C(Nc1ncc(N2CCOCC2)s1)c1ccco1 [Compound 32, N-(5-Morpholinothiazol-2-yl)furan-2-carboxamide] | 81.09±4.27% | CNS+ (Compounds with permeabilities Pe > 3.08 × 10^−6 cm/s could cross the BBB by passive diffusion (CNS+)) | 6.16 ± 0.5 | 
4 | O=C(Nc1ncc(N2CCOCC2)s1)c1cccs1 [Compound 33, N-(5-Morpholinothiazol-2-yl)thiophene-2-carboxamide] | 79.80±5.03% | CNS+ (Compounds with permeabilities Pe > 3.08 × 10^−6 cm/s could cross the BBB by passive diffusion (CNS+)) | 10.4 ± 1.25 | 
5 | O=C(Nc1ncc(N2CCOCC2)s1)c1ccoc1 [Compound 34, N-(5-Morpholinothiazol-2-yl)furan-3-carboxamide] | 80.23±0.88% | CNS+ (Compounds with permeabilities Pe > 3.08 × 10^−6 cm/s could cross the BBB by passive diffusion (CNS+)) | 6.82 ± 0.5 | 
6 | O=C(Nc1ncc(N2CCOCC2)s1)c1ccsc1 [Compound 35, N-(5-Morpholinothiazol-2-yl)thiophene-3-carboxamide] | 79.84±1.17% | CNS+ (Compounds with permeabilities Pe > 3.08 × 10^−6 cm/s could cross the BBB by passive diffusion (CNS+)) | 9.24 ± 0.47 | 
7 | O=C(Nc1ncc(N2CCOCC2)s1)c1ccc(Cl)s1 [Compound 36, 5-Chloro-N-(5-morpholinothiazol-2-yl)thiophene-2-carboxamide] | 83.32±0.41% | CNS+ (Compounds with permeabilities Pe > 3.08 × 10^−6 cm/s could cross the BBB by passive diffusion (CNS+)) | 10.62 ± 0.1 | Cytotoxicity on BV2 cells (BV2 cells): no cytotoxicity; Cell viability of BV2 cells at high concentration (BV2 cells): decreased; Cytotoxicity on SH-SY5Y cells (SH-SY5Y cells): low cytotoxicity; Phosphorylation of AKT, mTOR, p70S6K (Western blot) [3]: effectively inhibit the phosphorylation of AKT, mTOR, and p70S6K; ULK1 phosphorylation at Ser 757 (Western blot) [3]: no effect on the ULK1 phosphorylation; Protein levels of Beclin 1, LC3 II and p62 (Western blot) (LC3 II, Beclin 1 and p62): upregulate the protein levels of Beclin 1 and LC3 II, and decrease the p62 protein level; Numbers of yellow and red mTagRFP-mWasabi-LC3 puncta (autophagy in BV2 cells): increased the numbers of both yellow and red puncta
8 | Cc1ccc(C(=O)Nc2ncc(N3CCOCC3)s2)s1 [Compound 37, 5-Methyl-N-(5-morpholinothiazol-2-yl)thiophene-2-carboxamide] | 81.20±1.60% | CNS+ (Compounds with permeabilities Pe > 3.08 × 10^−6 cm/s could cross the BBB by passive diffusion (CNS+)) | 9.89 ± 0.37 | 
9 | Cc1ccsc1C(=O)Nc1ncc(N2CCOCC2)s1 [Compound 38, 3-Methyl-N-(5-morpholinothiazol-2-yl)thiophene-2-carboxamide] | 80.32±0.71% | CNS+ (Compounds with permeabilities Pe > 3.08 × 10^−6 cm/s could cross the BBB by passive diffusion (CNS+)) | 9.88 ± 0.75 | 
10 | O=C(CCc1ccccc1)Nc1ncc(N2CCOCC2)s1 [Compound 52, N-(5-Morpholinothiazol-2-yl)-3-phenylpropanamide] | 81.60±1.86% | CNS+ (Compounds with permeabilities Pe > 3.08 × 10^−6 cm/s could cross the BBB by passive diffusion (CNS+)) | 10.5 ± 1.13 | 
11 | CC(=O)Oc1ccccc1C(=O)Nc1ncc([N+](=O)[O-])s1 [NTZ, nitazoxanide, reference compound] |  |  | 1.26 ± 0.21 | Escape latencies in MWM assay ([5]; 30 mg/kg orally): significantly shortened the escape latencies; Nesting test [6]: obvious improvement in nesting test
